Data as given in patent US12312355B2, “1H-[1, 2, 3]triazolo[4, 5-h] quinazoline compounds acting as protein kinase inhibitors” (CHENGDU CYNOGEN BIO-PHARMACEUTICAL TECHNOLOGY CO., LTD., priority 2019, dated 2025).
pIC50: −log10 of the molar value. Structures can show the parent of a compound that is named as a salt.

Assays:
Assay type in all cases: biochemical
Details in all cases: class symbols
CDK4/cyclin D3 = CDK4/cyclin D3 (Homo sapiens (Human), UniProt P11802); experiment: Kinase activity assay, Caliper Mobility Shift Assay, CDK4/cyclin D3
Chain of CDK4/cyclin D3 (P11802 whole entry, species assumed): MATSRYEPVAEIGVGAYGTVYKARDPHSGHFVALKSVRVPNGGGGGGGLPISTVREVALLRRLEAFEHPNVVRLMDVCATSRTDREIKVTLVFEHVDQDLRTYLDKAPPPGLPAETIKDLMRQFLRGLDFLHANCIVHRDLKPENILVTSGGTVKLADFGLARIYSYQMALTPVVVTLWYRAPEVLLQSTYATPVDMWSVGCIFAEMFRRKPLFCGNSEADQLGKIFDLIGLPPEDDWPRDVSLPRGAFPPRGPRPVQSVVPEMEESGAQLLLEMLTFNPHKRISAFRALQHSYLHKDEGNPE
Chain of CDK4/cyclin D3 (P30281 whole entry partner, species assumed): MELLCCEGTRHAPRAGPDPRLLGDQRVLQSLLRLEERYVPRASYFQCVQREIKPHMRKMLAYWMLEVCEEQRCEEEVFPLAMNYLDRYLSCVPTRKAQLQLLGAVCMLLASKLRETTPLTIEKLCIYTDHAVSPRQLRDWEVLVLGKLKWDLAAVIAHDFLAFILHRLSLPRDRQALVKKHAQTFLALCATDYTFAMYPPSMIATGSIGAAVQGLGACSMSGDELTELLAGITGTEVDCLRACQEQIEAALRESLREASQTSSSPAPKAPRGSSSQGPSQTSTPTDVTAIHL
Experimental: The inhibitory effect of the compound on the kinase CDK4/cyclin D3 was tested by the Caliper Mobility Shift Assay method. The final test concentration of the compound was 10 concentrations, which started from […] and were obtained by three-fold dilution. 5 μL of 5-fold final concentration compound and 10 μL of CDK4/Cyclin D3 kinase solution with final concentration of 10 nM were added to the 384-well reaction plate respectively, and pre incubated at room temperature for 10 minutes (the negative control well contained 10 μL kinase buffer and 5 μL 5% DMSO; the positive control well contained 10 μL kinase solution and 5 μL 5% DMSO). The mixture of 10 μL ATP with a final concentration of 250 μM and the corresponding substrate peptide was added to initiate the reaction, and the mixture was reacted at room temperature for 150 minutes. 30 μL of stop test solution containing EDTA was added to stop the kinase reaction. Conversion rate was read by Caliper EZ Reader. Conversion inhibition rate %=(average conversion rate of positive control %−sample conversion rate %)/(average conversion rate of positive control %−average conversion rate of negative control %). Wherein: the negative control well represents conversion rate reading of wells without enzyme activity; the positive control well represents conversion rate reading of wells without compound inhibition. The log value of concentration was taken as the X-axis and the percentage inhibition rate was the Y-axis. […] Calculation formula: Y=Bottom+(Top−Bottom)/(1+10^((Log IC50−X)*HillSlope)).

CDK2/cyclin A2 = CDK2/cyclin A2 (Homo sapiens (Human), UniProt P24941); experiment: Kinase activity assay, Caliper Mobility Shift Assay, CDK2/cyclin A2
Experimental: The inhibitory effect of the compound on the kinase CDK4/cyclin D3 was tested by the Caliper Mobility Shift Assay method. The final test concentration of the compound was 10 concentrations, which started from […] and were obtained by three-fold dilution. 5 μL of 5-fold final concentration compound and 10 μL of CDK4/Cyclin D3 kinase solution with final concentration of 10 nM were added to the 384-well reaction plate respectively, and pre incubated at room temperature for 10 minutes (the negative control well contained 10 μL kinase buffer and 5 μL 5% DMSO; the positive control well contained 10 μL kinase solution and 5 μL 5% DMSO). The mixture of 10 μL ATP with a final concentration of 250 μM and the corresponding substrate peptide was added to initiate the reaction, and the mixture was reacted at room temperature for 150 minutes. 30 μL of stop test solution containing EDTA was added to stop the kinase reaction. Conversion rate was read by Caliper EZ Reader. Conversion inhibition rate %=(average conversion rate of positive control %−sample conversion rate %)/(average conversion rate of positive control %−average conversion rate of negative control %). Wherein: the negative control well represents conversion rate reading of wells without enzyme activity; the positive control well represents conversion rate reading of wells without compound inhibition. The log value of concentration was taken as the X-axis and the percentage inhibition rate was the Y-axis. The dose-effect curve was fitted by log(inhibitor) vs. response—Variable slope of the analysis software GraphPad Prism 5, and the IC50 value of each compound on the enzyme activity was obtained. Calculation formula: Y=Bottom+(Top−Bottom)/(1+10^((Log IC50−X)*HillSlope)).
The IC50 values of the compounds of the present disclosure for CDK6/cyclin D3 and CDK2/cyclin A2 were tested in a similar manner.

CDK6/cyclin D3 = CDK6/cyclin D3 (Homo sapiens (Human), UniProt Q00534); experiment: Kinase activity assay, Caliper Mobility Shift Assay, CDK6/cyclin D3
Chain of CDK6/cyclin D3 (Q00534 whole entry, species assumed): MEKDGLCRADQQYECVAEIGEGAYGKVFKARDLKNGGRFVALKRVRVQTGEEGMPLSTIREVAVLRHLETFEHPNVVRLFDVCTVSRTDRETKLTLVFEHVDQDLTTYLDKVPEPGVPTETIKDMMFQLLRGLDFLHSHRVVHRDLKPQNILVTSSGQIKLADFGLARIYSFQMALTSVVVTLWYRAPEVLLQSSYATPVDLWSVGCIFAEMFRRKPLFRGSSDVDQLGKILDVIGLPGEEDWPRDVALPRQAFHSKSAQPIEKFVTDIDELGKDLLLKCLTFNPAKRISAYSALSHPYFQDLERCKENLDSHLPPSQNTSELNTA
Chain of CDK6/cyclin D3 (P30281 whole entry partner, species assumed): as the sequence (P30281 whole entry partner, species assumed) above

Row | Compound | pIC50 (CDK4/cyclin D3) | pIC50 (CDK2/cyclin A2) | pIC50 (CDK6/cyclin D3)
1 | CC(C)n1nnc2ccc3cnc(Nc4cccc(S(N)(=O)=O)c4)nc3c21 [Compound I-36, 3-((1-isopropyl-1H-[1,2,3]triazolo[4,5-h]quinazolin-8-yl)amino)benzenesulfonamide hydrochloride] | > 8.00 | > 8.00 | > 8.00
2 | CC(C)n1nnc2ccc3cnc(Nc4ccc(N(CCN5CCOCC5)S(C)(=O)=O)cc4)nc3c21 [Compound I-37, N-(4-((1-Isopropyl-1H-[1,2,3]triazolo[4,5-h]quinazolin-8-yl)amino)phenyl)-N-(2-morpholinoethyl)methanesulfonamide] | > 8.00 | > 8.00 | > 8.00
3 | CC(C)n1nnc2ccc3cnc(Nc4ccc(OCCN(C)C)cc4)nc3c21 [Compound I-38, N-(4-(2-(Dimethylamino)ethoxy)phenyl)-1-isopropyl-1H-[1,2,3]triazolo[4,5-h]quin-azolin-8-amine] | > 8.00 | > 8.00 | > 8.00

Other lines, results leading:

Row | pIC50 (CDK4/cyclin D3) | pIC50 (CDK2/cyclin A2) | pIC50 (CDK6/cyclin D3) | Compound
4 | > 8.00 | > 8.00 | > 8.00 | CC(C)n1nnc2ccc3cnc(Nc4ccc(C(=O)N5CCNCC5)cc4)nc3c21 [Compound I-39, (4-((1-Isopropyl-1H-[1,2,3]triazolo[4,5-h]quinazolin-8-yl)amino)phenyl)(piper-azin-1-yl)methanone hydrochloride]
5 | > 8.00 | > 8.00 | > 8.00 | CC(C)n1nnc2ccc3cnc(Nc4ccc(C(=O)N5CCN(C)CC5)cc4)nc3c21 [Compound I-40]
